The values below come from patent publication US20220227796A1, “EGFR INHIBITORS, COMPOSITIONS AND METHODS THERE OF” (Betta Pharmaceuticals Co., Ltd., priority 2019, published 2022).

Counter-ions that a name gives are not always drawn.

For one test, the target named is Ba/F3-Δ19del/T790M/C797S (Homo sapiens, UniProt P00533, T790M/C797S, cells depend on it, form not given). Description: Ba/F3-Δ19del/T790M/C797S cells proliferation assay. In kind it is cell-based. As to conditions: cell proliferation, 72 h, CellTiter Glo; class symbols; read-out: BaF3 Δ 19del/T790M/C797S IC50. As for the experimental part:
(§1) a) The medium was preheated in a 37 water bath in advance.
(§2) b) Remove the cryogenic vials from the liquid nitrogen tank, quickly put it into a 37° C. water bath, and completely melt it in 1 min.
(§3) c) Transfer the cell suspension to a 15 mL centrifuge tube containing 8 mL medium, centrifuge 1000 rpm, 5 min,
(§4) d) Discard the supernatant, resuspend the cells in 1 mL medium, and transfer to a 75 cm^2 flask containing 15 mL medium, culture the cells in an incubator at 37° C., 5% CO2.
(§5) a) The medium was preheated in a 37° C.; water bath in advance.
(§6) b) Collect cell to a 15 mL centrifuged tube, centrifuge at 1000 rpm for 5 min. Discard the supernatant, count, and make the cell density at 1×10^4 cells/mL, then place it in a 37° C., 5% CO2 incubator.
(§7) b) The above compound solution was diluted 1:20 times with culture medium to prepare a 10 fold working solution;
(§8) a) Take cells in log phase growth, centrifuge at 1000 rpm for 5 min, then resuspend the cells with culture medium, then count cells;
(§9) b) Cells were seeded to 96-well cell culture plate with density at 2000 cells/well;
(§10) The blank control well was a culture medium (0.5% DMSO);
(§11) b) The cells were incubated for an additional 72 h in the incubator.
(§12) a) Remove the 96-well cell culture plate and add 50 μl of CTG reagent (CellTiter Glo kit, promega, Cat #G7573).
(§13) b) Plate was shaked for 2 min and then let it cool for 10 min at room temperature.
(§14) c) The Luminescence signal value was read using a PerkinElmer reader.
(§15) Experimental Data Analysis
(§16) Data were analyzed using GraphPad Prism 6.0 software to obtain a fitted curve of compound activity.
(§17) Y=Bottom+(Top−Bottom)/(1+10^((Log IC50−X)*Hill Slope));
(§18) The cells proliferation assay results are expressed with IC50, shown as Table 2.
On the technique in general: In ATP-based viability assays light output follows the ATP content of the culture.

A further test has as its target T1, Ba/F3-L858R/T790M/C797S (Homo sapiens, UniProt P00533, T790M/C797S/L858R, cells depend on it).
T1 construct: BaF3 L858R/T790M/C797S IC50; other: cell proliferation, 72 h, CellTiter Glo; class symbols; numeric values
Description: Ba/F3-L858R/T790M/C797S cells proliferation assay. Type of test: cell-based. The note with it: cell proliferation, 72 h, CellTiter Glo; class symbols; read-out: BaF3 L858R/T790M/C797S IC50. As for the experimental part: as §1, §2, §3, §4, §5, §6, §7, §8, §9, §10, §11, §12, §13, §14, §15, §16, §17, §18

Another test concerns the target EGFR T790M/L858R (Homo sapiens, UniProt P00533, L858R/T790M). Description: Kinase assay (mobility shift) for EGFR T790M/L858R. Type of test: biochemical. Here is the method:
(§19) Enzyme reaction protocol are as followed:
(§20) 1. Preparing 1* Kinase buffer as followed.
(§21) 2. Preparing Compound Concentration Gradient: Compounds were tested at a concentration of 300 nM, diluted to 100-fold final concentration in 100% DMSO solution in 96-well plates, and compounds were diluted 3 times with Precision, 10 concentrations. Each concentration of the compound was then further diluted to a 5-fold final concentration of the intermediate dilution solution using 1* Kinase buffer.
(§22) 3. 5 μL of each of the prepared intermediate dilution compounds was separately added to the compound wells of the 384-well plate, and each concentration was tested for duplicate wells; 5 μL of 5% DMSO was added to the negative control wells and the positive control wells, respectively.
(§23) 4. 2.5-fold final concentration of the kinase solution was prepared using 1*Kinase buffer.
(§24) 6. Centrifuge at 1000 rpm for 30 seconds, shake the reaction plate and incubate for 10 minutes at room temperature.
(§25) 8. 10 μL of a 2.5-fold final concentration of a mixed solution of ATP and a substrate was added to initiate the reaction.
(§26) 9. Centrifuge the 384-well plate at 1000 rpm for 30 seconds, mix by shaking, and incubate at room temperature for the corresponding time.
(§27) 10. Add 30 μL of the stop solution to stop the kinase reaction, centrifuge at 1000 rpm for 30 seconds, and mix by shaking.
(§28) 11. Read the conversion rate with Caliper EZ Reader.
(§29) Convert conversion values to inhibition values:
(§30) Percent inhibition=(max−conversion % sample)/(max−min)*100.
(§31) “max” stands for the mean value of the positive control well ratio; “min” stands for the mean value of the negative control well; conversion % sample: sample conversion reading.
(§32) Fit the data in log(inhibitor) vs. response Variable slope of GraphPad Prism 5 to obtain IC50 values.
(§33) Equation used is: Y=Bottom+(Top−Bottom)/(1+(IC50/X)*HillSlope)

The next test concerns H1975(L858R/T790M). Description: H1975 cells proliferation assay. The note with it: Homo sapiens, NCI-H1975; cell proliferation, 72 h, CellTiter Glo; class symbols; read-out: H1975 IC50. In kind it is cell-based. The method, boiled down: (§34)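 HCC827 (2500 cells/well) and H1975 (2000 cells/well) cells seeded in 96-well plates and exposed to compounds for 72 h at 37° C, 5% CO2; 0.5% DMSO medium as blank. Viability by CellTiter-Glo luminescence; IC50 from four-parameter logistic fit.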

The next test addresses EGFR L858R (Homo sapiens, UniProt P00533, L858R). Description: Kinase assay (mobility shift) for EGFR L858R. In kind it is biochemical. As for the experimental part:
as §19, §20, §21, §22, §23, §24, §25, §26, §27, §28, §29, §30, §31, §32, §33

For a further test, the target named is EGFR Δ19del/T790M/C797S (Homo sapiens, UniProt P00533, T790M/C797S, form not given). Description: Kinase assay (mobility shift) for EGFR Δ19del/T790M/C797S. The note with it: read-out: EGFR Δ 19del/T790M/C797S IC50. Type of test: biochemical. As for the experimental part:
as §19, §20, §21, §22, §23, §24, §25, §26, §27, §28, §29, §30, §31, §32, §33

Another test has as its system HCC827(Δ19del). Description: HCC827 cells proliferation assay. In kind it is cell-based. As to conditions: Homo sapiens, HCC827; cell proliferation, 72 h, CellTiter Glo; class symbols; read-out: HCC827 IC50. The method, boiled down:
as §34

Chain of EGFR L858R (P00533 25-1210 L858R): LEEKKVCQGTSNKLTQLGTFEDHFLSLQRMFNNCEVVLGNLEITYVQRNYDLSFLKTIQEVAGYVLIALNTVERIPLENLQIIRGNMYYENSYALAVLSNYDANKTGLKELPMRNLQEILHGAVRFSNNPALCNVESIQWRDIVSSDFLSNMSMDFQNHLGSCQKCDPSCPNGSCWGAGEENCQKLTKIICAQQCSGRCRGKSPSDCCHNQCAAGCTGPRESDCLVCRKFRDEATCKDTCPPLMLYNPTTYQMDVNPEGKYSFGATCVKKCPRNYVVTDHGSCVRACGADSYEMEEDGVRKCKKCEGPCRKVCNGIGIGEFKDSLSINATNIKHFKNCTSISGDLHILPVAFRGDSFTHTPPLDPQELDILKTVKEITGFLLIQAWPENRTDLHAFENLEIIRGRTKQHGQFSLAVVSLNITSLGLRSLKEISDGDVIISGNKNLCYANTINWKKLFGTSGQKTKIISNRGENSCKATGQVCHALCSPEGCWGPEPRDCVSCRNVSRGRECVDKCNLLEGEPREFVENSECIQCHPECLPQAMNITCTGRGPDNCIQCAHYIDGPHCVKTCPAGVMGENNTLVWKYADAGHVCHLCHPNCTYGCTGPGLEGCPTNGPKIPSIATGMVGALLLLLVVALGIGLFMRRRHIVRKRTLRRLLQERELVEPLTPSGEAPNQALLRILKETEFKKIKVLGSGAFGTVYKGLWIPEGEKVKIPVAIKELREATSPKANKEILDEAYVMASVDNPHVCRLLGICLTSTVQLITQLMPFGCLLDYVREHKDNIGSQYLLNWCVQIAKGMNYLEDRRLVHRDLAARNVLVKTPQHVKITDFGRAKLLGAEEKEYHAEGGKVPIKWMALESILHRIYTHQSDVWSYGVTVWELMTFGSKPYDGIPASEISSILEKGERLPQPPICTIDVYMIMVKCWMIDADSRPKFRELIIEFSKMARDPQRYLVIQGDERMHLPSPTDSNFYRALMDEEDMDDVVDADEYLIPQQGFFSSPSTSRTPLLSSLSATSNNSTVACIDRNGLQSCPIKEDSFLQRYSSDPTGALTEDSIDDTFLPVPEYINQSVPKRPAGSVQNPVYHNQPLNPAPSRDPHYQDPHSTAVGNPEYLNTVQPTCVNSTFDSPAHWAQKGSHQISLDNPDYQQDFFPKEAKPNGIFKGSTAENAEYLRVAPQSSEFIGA
T1 sequence (P00533 whole entry T790M/C797S/L858R): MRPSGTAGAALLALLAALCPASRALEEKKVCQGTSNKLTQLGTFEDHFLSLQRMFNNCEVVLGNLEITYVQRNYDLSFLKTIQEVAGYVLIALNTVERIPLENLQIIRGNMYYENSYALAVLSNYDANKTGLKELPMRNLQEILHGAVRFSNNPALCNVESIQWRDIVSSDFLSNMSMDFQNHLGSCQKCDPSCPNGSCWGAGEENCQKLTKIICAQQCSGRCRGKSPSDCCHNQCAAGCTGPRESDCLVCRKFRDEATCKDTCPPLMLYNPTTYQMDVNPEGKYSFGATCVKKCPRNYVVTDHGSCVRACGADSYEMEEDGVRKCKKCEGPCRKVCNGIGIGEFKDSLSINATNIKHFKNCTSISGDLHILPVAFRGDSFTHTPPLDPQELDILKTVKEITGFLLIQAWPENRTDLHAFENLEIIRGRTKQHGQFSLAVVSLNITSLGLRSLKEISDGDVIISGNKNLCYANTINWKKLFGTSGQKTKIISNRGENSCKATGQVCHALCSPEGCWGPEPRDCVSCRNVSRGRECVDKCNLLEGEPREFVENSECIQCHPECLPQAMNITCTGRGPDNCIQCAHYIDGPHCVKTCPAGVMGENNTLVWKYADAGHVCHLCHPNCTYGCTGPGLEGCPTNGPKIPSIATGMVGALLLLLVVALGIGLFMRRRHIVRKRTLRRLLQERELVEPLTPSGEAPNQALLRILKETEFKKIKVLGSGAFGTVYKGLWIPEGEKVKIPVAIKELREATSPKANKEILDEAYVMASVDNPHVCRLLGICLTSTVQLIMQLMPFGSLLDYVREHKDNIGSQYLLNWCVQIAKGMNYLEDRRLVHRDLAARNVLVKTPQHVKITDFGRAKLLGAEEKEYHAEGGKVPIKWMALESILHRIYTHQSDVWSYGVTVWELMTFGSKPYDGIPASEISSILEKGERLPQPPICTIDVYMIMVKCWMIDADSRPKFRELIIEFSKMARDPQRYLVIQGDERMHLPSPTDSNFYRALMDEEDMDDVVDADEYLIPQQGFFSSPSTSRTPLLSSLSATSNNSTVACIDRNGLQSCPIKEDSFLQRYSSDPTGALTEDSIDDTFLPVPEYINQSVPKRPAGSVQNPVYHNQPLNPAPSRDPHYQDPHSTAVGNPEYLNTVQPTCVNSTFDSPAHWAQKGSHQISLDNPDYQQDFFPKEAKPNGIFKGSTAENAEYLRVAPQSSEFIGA
Chain of EGFR T790M/L858R (P00533 25-1210 T790M/L858R): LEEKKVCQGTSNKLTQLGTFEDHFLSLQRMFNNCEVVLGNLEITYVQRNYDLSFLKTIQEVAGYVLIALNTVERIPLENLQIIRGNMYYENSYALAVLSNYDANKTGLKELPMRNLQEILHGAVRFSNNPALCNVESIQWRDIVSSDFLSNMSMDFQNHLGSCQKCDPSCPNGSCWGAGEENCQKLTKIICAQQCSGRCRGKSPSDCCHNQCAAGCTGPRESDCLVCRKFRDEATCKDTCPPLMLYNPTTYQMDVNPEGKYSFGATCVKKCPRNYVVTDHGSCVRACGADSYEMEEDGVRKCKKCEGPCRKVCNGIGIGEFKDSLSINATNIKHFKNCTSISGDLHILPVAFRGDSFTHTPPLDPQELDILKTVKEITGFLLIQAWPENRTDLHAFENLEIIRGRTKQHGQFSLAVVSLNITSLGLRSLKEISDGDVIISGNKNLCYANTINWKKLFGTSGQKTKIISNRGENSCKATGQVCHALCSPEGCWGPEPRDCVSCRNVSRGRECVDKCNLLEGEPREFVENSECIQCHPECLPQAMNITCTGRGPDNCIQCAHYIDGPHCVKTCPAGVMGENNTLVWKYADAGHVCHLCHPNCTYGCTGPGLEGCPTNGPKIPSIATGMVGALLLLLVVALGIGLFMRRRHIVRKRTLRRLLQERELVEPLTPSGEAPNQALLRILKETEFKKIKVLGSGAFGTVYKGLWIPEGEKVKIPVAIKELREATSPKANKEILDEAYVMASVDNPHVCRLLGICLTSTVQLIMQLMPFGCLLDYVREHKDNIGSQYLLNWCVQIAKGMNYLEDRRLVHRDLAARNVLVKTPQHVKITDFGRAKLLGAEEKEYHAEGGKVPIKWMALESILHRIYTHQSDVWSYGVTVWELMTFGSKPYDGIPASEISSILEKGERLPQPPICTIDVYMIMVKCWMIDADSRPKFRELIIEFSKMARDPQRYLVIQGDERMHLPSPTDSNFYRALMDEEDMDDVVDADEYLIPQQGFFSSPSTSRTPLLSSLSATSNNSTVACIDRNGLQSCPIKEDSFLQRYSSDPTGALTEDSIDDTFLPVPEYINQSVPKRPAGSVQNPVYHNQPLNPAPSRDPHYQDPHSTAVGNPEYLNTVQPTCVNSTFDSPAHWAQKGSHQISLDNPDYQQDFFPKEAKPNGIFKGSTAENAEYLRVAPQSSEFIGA
Chain of EGFR Δ19del/T790M/C797S (P00533 with tags, fused parts or gaps DEL746-750/T790M/C797S, form open): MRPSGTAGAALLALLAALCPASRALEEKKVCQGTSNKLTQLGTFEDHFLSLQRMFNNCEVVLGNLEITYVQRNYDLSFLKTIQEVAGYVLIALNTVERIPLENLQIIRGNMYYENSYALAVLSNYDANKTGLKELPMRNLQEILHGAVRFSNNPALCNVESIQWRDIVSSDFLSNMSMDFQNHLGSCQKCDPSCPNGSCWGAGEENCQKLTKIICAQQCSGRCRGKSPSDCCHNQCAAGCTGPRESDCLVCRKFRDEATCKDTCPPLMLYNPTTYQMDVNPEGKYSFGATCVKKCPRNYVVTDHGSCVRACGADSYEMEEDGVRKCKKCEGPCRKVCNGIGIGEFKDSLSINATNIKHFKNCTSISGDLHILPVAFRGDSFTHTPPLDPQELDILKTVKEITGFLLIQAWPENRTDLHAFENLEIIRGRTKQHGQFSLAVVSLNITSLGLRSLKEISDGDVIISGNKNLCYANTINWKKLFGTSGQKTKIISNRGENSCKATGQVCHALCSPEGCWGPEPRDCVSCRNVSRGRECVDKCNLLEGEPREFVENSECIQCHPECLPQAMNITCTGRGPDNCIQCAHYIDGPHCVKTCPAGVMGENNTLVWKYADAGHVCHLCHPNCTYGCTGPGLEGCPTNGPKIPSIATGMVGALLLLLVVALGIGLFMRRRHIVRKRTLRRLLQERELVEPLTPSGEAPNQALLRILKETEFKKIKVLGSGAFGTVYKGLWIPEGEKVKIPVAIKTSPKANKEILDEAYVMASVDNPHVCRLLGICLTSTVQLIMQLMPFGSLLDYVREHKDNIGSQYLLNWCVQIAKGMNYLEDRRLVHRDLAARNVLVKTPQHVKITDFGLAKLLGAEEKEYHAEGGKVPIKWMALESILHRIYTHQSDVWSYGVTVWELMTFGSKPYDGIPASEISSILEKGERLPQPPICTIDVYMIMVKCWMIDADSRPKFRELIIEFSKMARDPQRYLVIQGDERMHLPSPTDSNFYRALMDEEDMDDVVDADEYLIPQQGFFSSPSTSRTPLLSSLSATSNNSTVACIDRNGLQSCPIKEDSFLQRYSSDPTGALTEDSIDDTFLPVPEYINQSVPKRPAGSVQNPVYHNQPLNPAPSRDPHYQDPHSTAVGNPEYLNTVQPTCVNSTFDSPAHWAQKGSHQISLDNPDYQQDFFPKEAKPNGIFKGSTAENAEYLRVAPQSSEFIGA

In the case of `C=CC(=O)Nc1cc(Nc2ncc(Cl)c(Nc3ccccc3P(C)(C)=O)n2)ccc1N1CCC2(CCC(N(C)C)CC2)CC1` [Compound 1, N-(5-((5-chloro-4-((2-(dimethylphosphoryl)phenyl)amino)pyrimidin-2-yl)amino)-2-(9-(dimethylamino)-3-azaspiro[5.5]undecan-3-yl)phenyl)acrylamide], the GI50 on Ba/F3-Δ19del/T790M/C797S and at Ba/F3-L858R/T790M/C797S was under 10 nM in each case. Moreover, the IC50 at EGFR T790M/L858R was under 10 nM; with H1975(L858R/T790M) it was under 10 nM; on EGFR L858R, 10 to 100 nM; on EGFR Δ19del/T790M/C797S, under 10 nM; in the test with HCC827(Δ19del), under 10 nM.
`C=CC(=O)Nc1cc(Nc2ncc(Cl)c(Nc3ccccc3P(C)(C)=O)n2)ccc1N(C)CCN(C)C` [Compound 15, N-(5-((5-chloro-4-((2-(dimethylphosphoryl)phenyl)amino)pyrimidin-2-yl)amino)-2-((2-(dimethylamino)ethyl)(methyl)amino)phenyl)acrylamide]: the GI50 on Ba/F3-Δ19del/T790M/C797S and at Ba/F3-L858R/T790M/C797S was 10 to 50 nM in each case. Also, the IC50 at EGFR T790M/L858R, with H1975(L858R/T790M), at EGFR L858R, at EGFR Δ19del/T790M/C797S and in the test with HCC827(Δ19del) was under 10 nM in each case.
`C=CC(=O)Nc1cc(Nc2ncc(Cl)c(Nc3ccccc3P(C)(C)=O)n2)ccc1N1CCC(N2CCN(C)CC2)CC1` [Compound 16, N-(5-((5-chloro-4-((2-(dimethylphosphoryl)phenyl)amino)pyrimidin-2-yl)amino)-2-(4-(4-methylpiperazin-1-yl)piperidin-1-yl)phenyl)acrylamide]: the GI50 at Ba/F3-Δ19del/T790M/C797S and on Ba/F3-L858R/T790M/C797S was 10 to 50 nM each time. The IC50 on EGFR T790M/L858R is under 10 nM; with H1975(L858R/T790M) it was under 10 nM; at EGFR L858R it was under 10 nM; at EGFR Δ19del/T790M/C797S, under 10 nM; in the test on HCC827(Δ19del), 10 to 50 nM.
In the case of `C=CC(=O)Nc1cc(Nc2ncc(Cl)c(Nc3ccccc3P(C)(C)=O)n2)ccc1N1CCN2CCC[C@H]2C1` [Compound 17, (S)—N-(5-((5-chloro-4-((2-(dimethylphosphoryl)phenyl)amino)pyrimidin-2-yl)amino)-2-(hexahydropyrrolo[1,2-a]pyrazin-2(1H)-yl)phenyl)acrylamide], the GI50 at Ba/F3-Δ19del/T790M/C797S and on Ba/F3-L858R/T790M/C797S was 10 to 50 nM each time. Further, the IC50 at EGFR T790M/L858R was under 10 nM; in the test on H1975(L858R/T790M) it was 10 to 50 nM; at EGFR L858R, under 10 nM; at EGFR Δ19del/T790M/C797S, under 10 nM; in the test with HCC827(Δ19del), 10 to 50 nM.
Take `C=CC(=O)Nc1cc(Nc2ncc(Cl)c(Nc3ccccc3P(C)(C)=O)n2)ccc1N(C)CCN1CCCC1` [Compound 18, N-(5-((5-chloro-4-((2-(dimethylphosphoryl)phenyl)amino)pyrimidin-2-yl)amino)-2-(methyl(2-(pyrrolidin-1-yl)ethyl)amino)phenyl)acrylamide]: the GI50 on Ba/F3-Δ19del/T790M/C797S and on Ba/F3-L858R/T790M/C797S was 10 to 50 nM in each case. The IC50 at EGFR T790M/L858R, in the test on H1975(L858R/T790M), at EGFR L858R, on EGFR Δ19del/T790M/C797S and in the test on HCC827(Δ19del) was under 10 nM in each case.
Regarding `C=CC(=O)Nc1cc(Nc2ncc(Cl)c(Nc3ccc4ccccc4c3P(C)(C)=O)n2)ccc1N1CCC2(CC1)CC(N(C)C)C2` [Compound 23, N-(5-((5-chloro-4-((1-(dimethylphosphoryl)naphthalen-2-yl)amino)pyrimidin-2-yl)amino)-2-(2-(dimethylamino)-7-azaspiro[3.5]nonan-7-yl)phenyl)acrylamide hydrochloric acid salt], the GI50 at Ba/F3-Δ19del/T790M/C797S and at Ba/F3-L858R/T790M/C797S was under 10 nM in each case. In addition, the figures for the IC50 with H1975(L858R/T790M), at EGFR Δ19del/T790M/C797S and with HCC827(Δ19del) were 10 to 50 nM, under 10 nM and 10 to 50 nM, respectively.
With `C=CC(=O)Nc1cc(Nc2ncc(Cl)c(Nc3ccc4ncccc4c3P(C)(C)=O)n2)ccc1N1CCC2(CC1)CC(N(C)C)C2` [Compound 30, N-(5-((5-chloro-4-((5-(dimethylphosphoryl)quinolin-6-yl)amino)pyrimidin-2-yl)amino)-2-(2-(dimethylamino)-7-azaspiro[3.5]nonan-7-yl)phenyl)acrylamide], the GI50 is under 10 nM at Ba/F3-Δ19del/T790M/C797S and 10 to 50 nM on Ba/F3-L858R/T790M/C797S. Further, the values for the IC50 in the test on H1975(L858R/T790M), on EGFR Δ19del/T790M/C797S and with HCC827(Δ19del) were 10 to 50 nM, under 10 nM and 10 to 50 nM, respectively.
In the case of `C=CC(=O)Nc1cc(Nc2ncc(Br)c(Nc3ccc4nccnc4c3P(C)(C)=O)n2)ccc1N(C)CCN(C)C` [Compound 34, N-(5-(5-bromo-4-(5-(dimethylphosphoryl)quinoxalin-6-ylamino)pyrimidin-2-ylamino)-2-((2-(dimethylamino)ethyl)(methyl)amino)phenyl)acrylamide], the GI50 at Ba/F3-Δ19del/T790M/C797S and at Ba/F3-L858R/T790M/C797S was under 10 nM each time. In addition, the IC50 with H1975(L858R/T790M), on EGFR Δ19del/T790M/C797S and with HCC827(Δ19del) was under 10 nM throughout.
For `C=CC(=O)Nc1cc(Nc2ncc(Br)c(Nc3ccc4nccnc4c3P(C)(C)=O)n2)ccc1N1CCC2(CC1)CC(N(C)C)C2` [Compound 35, N-(5-(5-bromo-4-(5-(dimethylphosphoryl)quinoxalin-6-ylamino)pyrimidin-2-ylamino)-2-(2-(dimethylamino)-7-azaspiro[3.5]nonan-7-yl)phenyl)acrylamide], the GI50 at Ba/F3-Δ19del/T790M/C797S and at Ba/F3-L858R/T790M/C797S was under 10 nM throughout. In addition, the IC50 in the test with H1975(L858R/T790M), on EGFR Δ19del/T790M/C797S and in the test on HCC827(Δ19del) was under 10 nM each time.
On to `C=CC(=O)Nc1cc(Nc2ncc(Cl)c(Nc3ccccc3P(C)(C)=O)n2)ccc1N1CCC2(CC1)CC(N(C)C)C2` [Compound 36, N-(5-((5-chloro-4-((2-(dimethylphosphoryl)phenyl)amino)pyrimidin-2-yl)amino)-2-(2-(dimethylamino)-7-azaspiro[3.5]nonan-7-yl)phenyl)acrylamide], for which the GI50 at Ba/F3-Δ19del/T790M/C797S and on Ba/F3-L858R/T790M/C797S was under 10 nM throughout. Moreover, the IC50 on EGFR T790M/L858R, with H1975(L858R/T790M), at EGFR L858R, at EGFR Δ19del/T790M/C797S and in the test with HCC827(Δ19del) was under 10 nM each time.
